# Measured values as given in PubChem BioAssay (NCI).
# Where “and” joins values, the source holds several entries; their conditions need not be identical. Equal entries are not always repeated.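 Results reflect a 48-hour exposure of cells in 96-well plates to compound at five concentrations. At the GI50, growth is halved. TGI: total growth inhibition.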
# Tests used:
# Experiment in all cases: inhibition of tumour cell growth, NCI panel, 48 h
# COLO 205 colon = tested on: COLO 205 colon
# RXF 393 renal = tested on: RXF 393 renal
# HOP-62 NSCLC = tested on: HOP-62 NSCLC
# OVCAR-3 ovarian = tested on: OVCAR-3 ovarian
# SN12C renal = tested on: SN12C renal
# HCT-116 colon = tested on: HCT-116 colon
# HT29 colon = tested on: HT29 colon
# M14 melanoma = tested on: M14 melanoma
# NCI-H23 lung = tested on: NCI-H23 lung
# SK-MEL-5 melanoma = tested on: SK-MEL-5 melanoma
Compound,TGI (COLO 205 colon),TGI (RXF 393 renal),TGI (HOP-62 NSCLC),TGI (OVCAR-3 ovarian),TGI (SN12C renal),TGI (HCT-116 colon),TGI (HT29 colon),TGI (M14 melanoma),TGI (NCI-H23 lung),TGI (SK-MEL-5 melanoma),GI50 (COLO 205 colon),GI50 (RXF 393 renal),GI50 (HOP-62 NSCLC),GI50 (OVCAR-3 ovarian),GI50 (SN12C renal),GI50 (HCT-116 colon),GI50 (HT29 colon),GI50 (M14 melanoma),GI50 (NCI-H23 lung)
COC(=O)/C(=C\c1ccco1)P(=O)(OC)OC,> 100 µM,> 100 µM,52.7 µM,81.6 µM,> 100 µM,> 100 µM,69.7 µM,> 100 µM,> 100 µM,> 100 µM,–,–,–,–,–,–,–,–,–
CCOP(=O)(OCC)C1(O)CC(n2cc(C)c(=O)[nH]c2=O)OC1CO (centres undefined),> 100 µM,> 100 µM,> 100 µM,> 100 µM,> 100 µM,> 100 µM,> 100 µM,> 100 µM,> 100 µM,> 100 µM,–,–,–,–,–,–,–,–,–
COC1=CC(=O)c2c(O)c3c(c(O)c2C1=O)C[C@](C)(O)C[C@@H]3O,4.96 µM,17.3 µM,19.7 µM,5.29 µM,13 µM,8.94 µM,8.05 µM,8.59 µM,6.7 µM,2.64 µM,–,–,–,–,–,–,–,–,–
CCOC(=O)C(NC(=O)CC)(Nc1ccc(S(=O)(=O)Nc2nc(C)cc(C)n2)cc1)C(F)(F)F (centres undefined),> 100 µM,> 100 µM,> 100 µM,> 100 µM,> 100 µM,> 100 µM,> 100 µM,> 100 µM,> 100 µM,> 100 µM,–,–,–,–,–,–,–,–,–
Cn1c2c(c3ccccc31)CCN1C(=O)C3SC21C1C(=O)N(c2ccccc2)C(=O)C31 (centres undefined),> 100 µM,> 100 µM,> 100 µM,> 100 µM,> 100 µM,> 100 µM,> 100 µM,> 100 µM,> 100 µM,> 73.4 µM,–,–,–,–,–,–,–,–,–
CC(=O)C12C[C@](C#N)(N3CCCCCC3)C1C=Cc1ccccc12 (some centres undefined),> 100 µM,> 100 µM,> 100 µM,> 100 µM,> 100 µM,> 100 µM,> 100 µM,> 100 µM,> 100 µM,> 100 µM,–,–,–,–,–,–,–,–,–
N#CC1(c2ccccc2)CCN(C2(c3ccccc3)CCCCC2)CC1,> 100 µM,> 100 µM,> 100 µM,> 100 µM,> 100 µM,> 100 µM,> 100 µM,> 100 µM,> 100 µM,> 100 µM,–,–,–,–,–,–,–,–,–
CN(/N=N/c1nc[nH]c1C(N)=O)C1CCCCC1,> 100 µM,> 100 µM,> 100 µM,> 100 µM,> 100 µM,> 100 µM,> 100 µM,> 100 µM,> 100 µM,> 100 µM,–,–,–,–,–,–,–,–,–
[N-]=[N+]=NC[C@H]1OCO[C@H](CN=[N+]=[N-])[C@H]2OCCOCCOc3ccccc3OCCOCCO[C@@H]21,> 100 µM,> 100 µM,> 100 µM,> 100 µM,> 100 µM,> 100 µM,> 100 µM,> 100 µM,> 100 µM,> 100 µM,–,–,–,–,–,–,–,–,–
ONC1=Nc2ccccc2OCc2cc(Br)c(Br)cc2COc2ccccc2N=C1NO,21.5 µM,47.9 µM,38.9 µM,> 48.1 µM,27.3 µM,32.9 µM,> 43.5 µM,> 54.2 µM,44.5 µM,30.4 µM,–,–,–,–,–,–,–,–,–
COc1ccc2c(c1)CC1Cc3ccccc3CCN1C2 (centres undefined),> 100 µM,> 100 µM,> 100 µM,> 100 µM,> 100 µM,> 100 µM,> 100 µM,> 100 µM,> 100 µM,41.7 µM,–,–,–,–,–,–,–,–,–
Cc1ccc(OCC2OC(n3cnc4c(Cl)ncnc43)CC2Oc2ccc(C)cc2)cc1 (centres undefined),19.4 µM and 74.4 µM,10.6 µM and 37.2 µM,13 µM and 38 µM,9.72 µM and 27.7 µM,15.3 µM and 36.6 µM,7.13 µM and 38.2 µM,3.13 µM and 21.2 µM,6.61 µM and 22.6 µM,7.99 µM and 27.8 µM,30.5 µM and 34.9 µM,6.45 µM and 20.8 µM,2.85 µM and 10.9 µM,4.29 µM and 17.5 µM,3.16 µM and 8.9 µM,7.49 µM and 17.5 µM,2.4 µM and 14.3 µM,1.69 µM and 6.15 µM,2.75 µM and 7.3 µM,3.03 µM and 11.9 µM
Cc1ccc(S(=O)(=O)c2ccc([N+](=O)[O-])o2)cc1,2.27 µM,3.33 µM,38.1 µM,3.71 µM,35.5 µM,3.94 µM,3.2 µM,3.82 µM,13 µM,23 µM,–,–,–,–,–,–,–,–,–
CSCCCNC(=O)c1csc(-c2csc(CCNC(=O)CNC(=O)CNC(=O)CNC(=O)OC(C)(C)C)n2)n1,> 100 µM,> 100 µM,> 100 µM,> 100 µM,> 100 µM,> 100 µM,> 100 µM,> 100 µM,> 100 µM,> 100 µM,–,–,–,–,–,–,–,–,–
CC(C)(C)OC(=O)NCC(=O)NC1C/C(=N\O)c2sccc21 (centres undefined),> 100 µM,> 100 µM,> 100 µM,> 100 µM,> 100 µM,> 100 µM,> 100 µM,> 100 µM,> 100 µM,> 100 µM,–,–,–,–,–,–,–,–,–
COc1cc(/C=C2\Cc3cc(OC)c(OC)cc3C2=O)cc(OC)c1,> 100 µM,57.1 µM,> 80.1 µM,> 100 µM,> 100 µM,> 52.2 µM,> 100 µM,> 100 µM,> 56.9 µM,> 100 µM,–,–,–,–,–,–,–,–,–
